Some test systems named below: DU-145 prostate; RXF 393 renal; SK-MEL-5 melanoma; UACC-62 melanoma; SNB-19 CNS; EKVX NSCLC; SW-620 colon; ACHN renal; CAKI-1 renal; BT-549 breast.
What all share (assay): growth of human tumour cells (NCI), 48 h

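Grown in 96-well plates, cells were treated for 48 hours with each compound at five concentrations. Insufficient inhibition: endpoint recorded as highest concentration tested. GI50 marks 50% less growth. TGI: concentration producing complete growth inhibition.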

Turning to `CCCCN(CCCC)Cc1cc(Nc2ccnc3cc(Cl)ccc23)ccc1O`, the results for the GI50 in the assay on DU-145 prostate, in the assay on RXF 393 renal and in the assay on SK-MEL-5 melanoma were over 100 µM, 20.9 µM and 8.29 µM, respectively. The TGI in the assay on DU-145 prostate, with RXF 393 renal and in the assay on SK-MEL-5 melanoma was over 100 µM in each case.
`C1=C(c2ccccc2)SC(N2CCCCC2)S1` (stereo unspecified): the TGI in the assay on UACC-62 melanoma, in the assay on SNB-19 CNS, in the assay on EKVX NSCLC, with RXF 393 renal and with SW-620 colon was over 100 µM in each case.
Regarding `CCOC(=O)C(C#N)(Cc1c[nH]c2ccccc12)NC(C)=O` (stereo unspecified), the TGI in the assay on UACC-62 melanoma, in the assay with EKVX NSCLC, in the assay on ACHN renal, with CAKI-1 renal, with RXF 393 renal and in the assay on SW-620 colon was over 100 µM in each case. This molecule also had a TGI in the assay with SK-MEL-5 melanoma of over 100 µM.
Turning to `C=CCC1(C#N)C(=S)NC2=C(C(=O)CC(C)(C)C2)C1c1ccccc1` (stereo unspecified), the TGI in the assay on BT-549 breast is over 100 µM; in the assay with SNB-19 CNS it was over 100 µM; in the assay on DU-145 prostate, 40.5 µM; in the assay on EKVX NSCLC, 60.5 µM; in the assay on CAKI-1 renal, over 100 µM; in the assay with RXF 393 renal, over 100 µM. For the same molecule, the TGI in the assay on SW-620 colon and in the assay on SK-MEL-5 melanoma was over 100 µM each time.
In the case of `O=S1(=O)c2ccccc2Oc2ccc(C(/C=N/O)=N/O)cc21`, the TGI in the assay with UACC-62 melanoma is over 100 µM; with DU-145 prostate it was 53 µM; in the assay with EKVX NSCLC, 57.7 µM; in the assay on ACHN renal, over 100 µM; in the assay on CAKI-1 renal it was 42.2 µM; with RXF 393 renal it was 63.6 µM.
For `CC(N=NNc1ccc(-c2nc3ccccc3[nH]2)cc1)C(=O)O` (stereo unspecified), the TGI is 57.6 µM with BT-549 breast; over 100 µM with SNB-19 CNS; over 100 µM in the assay on DU-145 prostate; over 100 µM with EKVX NSCLC; over 100 µM with ACHN renal; over 100 µM in the assay on CAKI-1 renal. The TGI with RXF 393 renal, with SW-620 colon and in the assay with SK-MEL-5 melanoma was over 100 µM throughout.
For `C=CCn1c(=O)c(C)cn(COCCO)c1=O`, the TGI with BT-549 breast, in the assay on SNB-19 CNS, in the assay with DU-145 prostate, in the assay on EKVX NSCLC, in the assay with ACHN renal and in the assay with CAKI-1 renal was over 100 µM in each case. The TGI in the assay with RXF 393 renal, with SW-620 colon and in the assay on SK-MEL-5 melanoma was over 100 µM throughout.
With `C[C@H](c1ccccc1)N1C(=O)[C@@H](O)[C@H]1[C@H](CO)OCc1ccccc1`, the TGI in the assay with UACC-62 melanoma, in the assay on SNB-19 CNS, in the assay on DU-145 prostate, with EKVX NSCLC, in the assay on ACHN renal and in the assay with SW-620 colon was over 100 µM throughout. Further, the TGI with SK-MEL-5 melanoma was over 100 µM.
In the case of `Cc1ccc2c(c1)-c1nc(N)c(C#N)c(-c3ccc(Cl)cc3)c1CCS2(=O)=O`, the TGI in the assay with UACC-62 melanoma, in the assay with BT-549 breast, in the assay on SNB-19 CNS, with DU-145 prostate, in the assay on ACHN renal and in the assay on CAKI-1 renal was over 100 µM throughout. Moreover, the TGI is over 100 µM in the assay with SW-620 colon and 40.2 µM in the assay on SK-MEL-5 melanoma.
As to `N=C1C(=N)c2ccccc2-c2ccccc21.[Cl-].[Ru+2].c1ccc(-c2ccccn2)nc1.c1ccc(-c2ccccn2)nc1`, the TGI in the assay on UACC-62 melanoma, with EKVX NSCLC, in the assay on ACHN renal, in the assay with RXF 393 renal, with SW-620 colon and in the assay on SK-MEL-5 melanoma was over 100 µM in each case.
Take `O=C(O)CN(CC(=O)O)C1CCCCC1N1CC(=O)OC(=O)C1` (stereo unspecified): the TGI in the assay on UACC-62 melanoma, in the assay on BT-549 breast, in the assay with SNB-19 CNS, with DU-145 prostate, in the assay on EKVX NSCLC and in the assay with ACHN renal was over 100 µM in each case. For the same molecule, the TGI in the assay on CAKI-1 renal, in the assay on SW-620 colon and in the assay with SK-MEL-5 melanoma was over 100 µM throughout.
Consider `CN(C)CCNc1ccc2c(=O)n(CCN(C)C)c(=O)n3c4ccc(O)cc4c(=O)c1c23`, for which the TGI with UACC-62 melanoma is 0.147 µM; in the assay with BT-549 breast it was 2.35 µM; in the assay on SNB-19 CNS, 0.729 µM; with DU-145 prostate it was 0.0781 µM; in the assay on EKVX NSCLC, 0.57 µM; with ACHN renal, under 0.01 µM. Moreover, the TGI came to 0.224 µM in the assay with RXF 393 renal, 0.67 µM in the assay on SW-620 colon and 0.211 µM in the assay on SK-MEL-5 melanoma.
As for `Cc1ccc2nc(SCC(=O)N=Nc3c(O)[nH]c4ccccc34)n(-c3ccccc3)c(=O)c2c1`, the TGI in the assay with UACC-62 melanoma amounted to 30.6 µM; in the assay with SNB-19 CNS it was 40.6 µM; in the assay on DU-145 prostate, 26.2 µM; in the assay with EKVX NSCLC, 29.2 µM; in the assay on ACHN renal it was 26.7 µM; in the assay on CAKI-1 renal, 43.3 µM. In addition, the TGI in the assay on RXF 393 renal was determined as 27 µM; in the assay on SW-620 colon, 61.4 µM; in the assay on SK-MEL-5 melanoma, 29.1 µM.
For the molecule `O=C(/C=C(/C=C/c1ccc2[nH]ccc2c1)OB(F)F)/C=C/c1ccc2[nH]ccc2c1`, the GI50 is 1.85 µM in the assay with UACC-62 melanoma; 1.64 µM in the assay with DU-145 prostate; 3.17 µM with EKVX NSCLC; 2.52 µM in the assay with ACHN renal; 2.56 µM in the assay with CAKI-1 renal; 1.56 µM with RXF 393 renal. Further, the GI50 with SK-MEL-5 melanoma was 2.98 µM. In addition, the TGI came to 5.02 µM in the assay on UACC-62 melanoma; 4.2 µM in the assay with DU-145 prostate; 86.9 µM with EKVX NSCLC; 7.57 µM in the assay on ACHN renal; 10.1 µM with CAKI-1 renal; 3.63 µM in the assay on RXF 393 renal. The TGI in the assay with SK-MEL-5 melanoma was found to be 13.3 µM.
Consider `CC(=O)O[C@H]1CC(C)(C)C(=C=C/C(C)=C/C=C/C=C/C=C(C)/C=C2C=C(/C=C/[C@@]34O[C@]3(C)C[C@@H](O)CC4(C)C)C(=O)O/2)[C@](C)(O)C1`, for which the TGI with UACC-62 melanoma was 24 µM; with BT-549 breast it was 8.16 µM; in the assay with SNB-19 CNS, over 100 µM; in the assay on DU-145 prostate it was over 100 µM; with ACHN renal it was 48.7 µM; with CAKI-1 renal, 98.1 µM. Besides, the TGI was 20.5 µM in the assay with RXF 393 renal, over 100 µM in the assay on SW-620 colon and 28.9 µM in the assay on SK-MEL-5 melanoma.

The values are drawn from PubChem BioAssay (NCI).
